# ChEMBL document CHEMBL1201862, “PubChem BioAssay data set” (2004)
#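 Grown in 96-well plates, cells were treated for 48 hours with each compound at five concentrations. Insufficient inhibition: endpoint recorded as highest concentration tested. GI50 = concentration required for 50% inhibition of growth.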 Activity calls are given as the source filed them. No stated cut-off is given here; in the data, active = GI50 up to about 1.1 µM and inactive = higher.
# Legend:
# Assay in all cases: NCI tumour cell line growth inhibition, 48 h
# [1] = test system: 786-0
# [2] = test system: Hs-578T
# [3] = test system: IGROV-1
# [4] = test system: K562
# [5] = test system: LOX IMVI
# [6] = test system: M14
# [7] = test system: MDA-MB-231
# [8] = test system: MDA-N
# [9] = test system: MOLT-4
# [10] = test system: Malme-3M
# [11] = test system: NCI-H226
# [12] = test system: NCI-H23
# [13] = test system: NCI-H522
# [14] = test system: OVCAR-3
# [15] = test system: SF-268
# [16] = test system: SF-295
# [17] = test system: SK-MEL-5
# [18] = test system: SW-620
# [19] = test system: T47D
# [20] = test system: U-251
SMILES,GI50 [1],GI50 [2],GI50 [3],GI50 [4],GI50 [5],GI50 [6],GI50 [7],GI50 [8],GI50 [9],GI50 [10],GI50 [11],GI50 [12],GI50 [13],GI50 [14],GI50 [15],GI50 [16],GI50 [17],GI50 [18],GI50 [19],GI50 [20]
CCOC(=O)Nc1cc2c(c(N)n1)N=C(c1ccc(Cl)cc1Cl)CN2,< 0.0217 µM (active),< 0.0143 µM (active),0.292 µM (active),< 0.01 µM (active),< 0.0195 µM (active),0.0766 µM (active),0.0442 µM (active),< 0.01 µM (active),< 0.0228 µM (active),< 0.0178 µM (active),0.0314 µM (active),0.0834 µM (active),< 0.0213 µM (active),0.0109 µM (active),0.0845 µM (active),0.0112 µM (active),< 0.0124 µM (active),< 0.0194 µM (active),15.6 µM (inactive),< 0.019 µM (active)
N#CC1=C(N)N(/N=C/c2ccccc2)C(c2ccccc2)C1(C#N)C#N (stereo not given),4.7 µM (inactive),24.1 µM (inactive),13.7 µM (inactive),2.98 µM (inactive),4.14 µM (inactive),12.6 µM (inactive),17 µM (inactive),16.1 µM (inactive),2.23 µM (inactive),2.07 µM (inactive),18.6 µM (inactive),17.9 µM (inactive),4.38 µM (inactive),4.89 µM (inactive),20.7 µM (inactive),17.1 µM (inactive),14.2 µM (inactive),5.18 µM (inactive),6.87 µM (inactive),17.7 µM (inactive)
Cc1c(-c2ccccc2)[nH]c2ccc(Cl)cc2c1=O,29.8 µM (inactive),30.5 µM (inactive),33.9 µM (inactive),8.87 µM (inactive),27.9 µM (inactive),34.7 µM (inactive),19 µM (inactive),17.4 µM (inactive),22 µM (inactive),18.3 µM (inactive),30.4 µM (inactive),23.4 µM (inactive),21.3 µM (inactive),17.1 µM (inactive),30.6 µM (inactive),30.8 µM (inactive),13.3 µM (inactive),75.2 µM (inactive),19.4 µM (inactive),22.9 µM (inactive)
O=C1C2CCN(CC2)C1CN1CCOCC1 (stereo not given),1.93 µM (inactive),29 µM (inactive),19.3 µM (inactive),6.73 µM (inactive),5.16 µM (inactive),2.96 µM (inactive),24.7 µM (inactive),5.75 µM (inactive),2.33 µM (inactive),1.8 µM (inactive),13.6 µM (inactive),9.95 µM (inactive),0.689 µM (active),2.14 µM (inactive),13.7 µM (inactive),19.4 µM (inactive),17.1 µM (inactive),1.72 µM (inactive),1.92 µM (inactive),11 µM (inactive)
COC(=O)C1Cc2c([nH]c3ccccc23)-c2[nH]c3ccccc3c2CC(NC(C)=O)C(=O)NCC(=O)NCC(=O)N1 (stereo not given),> 100 µM (inactive),> 100 µM (inactive),> 100 µM (inactive),> 100 µM (inactive),> 100 µM (inactive),> 100 µM (inactive),> 100 µM (inactive),> 100 µM (inactive),> 100 µM (inactive),> 100 µM (inactive),> 100 µM (inactive),> 100 µM (inactive),> 100 µM (inactive),> 100 µM (inactive),> 100 µM (inactive),> 100 µM (inactive),> 100 µM (inactive),> 100 µM (inactive),> 100 µM (inactive),> 100 µM (inactive)
CC(=O)O[C@H]1CC[C@H]2[C@@H]3CCC4C(C)=NNC(=O)C4[C@H]3CC[C@]12C (stereo not given in full),40.3 µM (inactive),17.8 µM (inactive),27 µM (inactive),> 100 µM (inactive),> 38.6 µM (inactive),> 100 µM (inactive),33.3 µM (inactive),> 100 µM (inactive),> 100 µM (inactive),99.8 µM (inactive),39.5 µM (inactive),> 60.7 µM (inactive),34 µM (inactive),> 100 µM (inactive),34 µM (inactive),41.5 µM (inactive),> 100 µM (inactive),> 100 µM (inactive),> 100 µM (inactive),36.5 µM (inactive)
COCC1OC(S(=O)(=O)c2ccccc2)C(O)C(OC)C1OC (stereo not given),> 100 µM (inactive),> 100 µM (inactive),> 100 µM (inactive),> 100 µM (inactive),> 100 µM (inactive),> 100 µM (inactive),> 100 µM (inactive),> 100 µM (inactive),> 100 µM (inactive),> 100 µM (inactive),> 100 µM (inactive),> 100 µM (inactive),> 100 µM (inactive),> 100 µM (inactive),> 100 µM (inactive),> 100 µM (inactive),> 100 µM (inactive),> 100 µM (inactive),> 100 µM (inactive),> 100 µM (inactive)
